This note sets out measurements from patent US20220387325A1, “METHOD FOR MANUFACTURING DISPERSION OF ULTRAFINE PARTICLES OF POORLY SOLUBLE SUBSTANCE” (NANO CUBE JAPAN CO., LTD., priority 2019, published 2022).

The nature of data set [1]: physchem. The note with it: for solubility at 1 h: water, thermodynamic from solid. As for the experimental part:
To 100 mL of the liquid thus obtained, 100 mL of water was added and acetone was distilled off by concentration under reduced pressure to obtain a water dispersion of ultrafine particles of coenzyme Q10.
To 100 mL of the liquid thus obtained, 100 mL of water was added and acetone was distilled off by concentration under reduced pressure to obtain a water dispersion of ultrafine particles of busulfan. […] The solubility was measured in the same manner as in Example 1, except that busulfan was used in place of coenzyme Q10.
To 100 mL of the liquid thus obtained, 100 mL of water was added and ethanol was distilled off by concentration under reduced pressure to obtain a water dispersion of ultrafine particles of docetaxel. […] The solubility was measured in the same manner as in Example 1, except that docetaxel was used in place of coenzyme Q10.
To 100 mL of the liquid thus obtained, 100 mL of water was added and ethanol was distilled off by concentration under reduced pressure to obtain a water dispersion of ultrafine particles of paclitaxel. […] The solubility was measured in the same manner as in Example 1, except that paclitaxel was used in place of coenzyme Q10.
To 100 mL of the liquid thus obtained, 100 mL of water was added and ethanol was distilled off by concentration under reduced pressure to obtain a water dispersion of ultrafine particles of azadirachtin.
To 100 mL of the liquid thus obtained, 100 mL of 1-butanol was added and water was distilled off by concentration under reduced pressure to obtain a 1-butanol dispersion of ultrafine particles of ascorbic acid.

Data set [2] in a line: physchem. Conditions: 25 °C, organic solvent or mixture.
Data set [3] is described as follows: Solubility in good solvent. The note with it: for solubility: organic solvent or mixture.

On to `C/C=C(\C)C(=O)O[C@H]1C[C@@H](OC(C)=O)[C@@]2(C(=O)OC)CO[C@H]3[C@@H](O)[C@@](C)([C@]45O[C@@]4(C)[C@H]4C[C@@H]5O[C@@H]5OC=C[C@@]54O)[C@H]4[C@]1(CO[C@]4(O)C(=O)OC)[C@@H]32` [azadirachtin], for which the solubility at 1 h in data set [1] (20 °C) was not above 100 µg/mL. Moreover, the solubility in data set [2] is not below 30 mg/mL.
As to `CS(=O)(=O)OCCCCOS(C)(=O)=O` [busulfan], the solubility in data set [3] (acetone, 50 °C) was not below 30 mg/mL. The compound also yielded a solubility at 1 h in data set [1] (25 °C) not above 10 µg/mL.
With `COC1=C(OC)C(=O)C(C/C=C(\C)CC/C=C(\C)CC/C=C(\C)CC/C=C(\C)CC/C=C(\C)CC/C=C(\C)CC/C=C(\C)CC/C=C(\C)CC/C=C(\C)CCC=C(C)C)=C(C)C1=O` [coenzyme Q10], in data set [3] (acetone, 25° C.), the solubility in acetone is given as not below 30 mg/mL. In data set [1], this compound had a solubility in water not above 0.01 mg/mL.
With `CC(=O)O[C@@]12CO[C@@H]1C[C@H](O)[C@@]1(C)C(=O)[C@H](O)C3=C(C)[C@@H](OC(=O)[C@H](O)[C@@H](NC(=O)OC(C)(C)C)c4ccccc4)C[C@@](O)([C@@H](OC(=O)c4ccccc4)[C@H]21)C3(C)C` [docetaxel], the solubility in data set [3] (ethanol, 60 °C) is not below 20 mg/mL. In addition, the solubility at 1 h in data set [1] (25 °C) is not above 10 µg/mL.
For the compound `CC(=O)O[C@H]1C(=O)[C@@]2(C)[C@H]([C@H](OC(=O)c3ccccc3)[C@]3(O)C[C@H](OC(=O)[C@H](O)[C@@H](NC(=O)c4ccccc4)c4ccccc4)C(C)=C1C3(C)C)[C@]1(OC(C)=O)CO[C@@H]1C[C@@H]2O` [paclitaxel], the solubility in data set [3] (ethanol, 25 °C) was not below 30 mg/mL. This compound came in with a solubility at 1 h in data set [1] (25 °C) not above 10 µg/mL.
